Reference: patent publication US8969325B2, “TRPV1 antagonists” (AbbVie Inc., priority 2011, dated 2015)

Key:
[1] = target: T1, human TRPV1 (Homo sapiens (Human), UniProt Q8NER1); assay: Capsaicin Activation Assay (intracellular Ca2+, FLIPR); assay type: cell-based; details: recombinant HEK293 cells expressing hTRPV1, 50 nM capsaicin
Procedure, shortened: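 Stably transfected HEK293 cells expressing human TRPV1 cDNA, plated the day before in poly-D-lysine plates. Compounds serially diluted from 10 mM DMSO stocks; intracellular Ca2+ fluorescence read on FLIPR at 1 to 5 second intervals.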

[2] = target: T1, human TRPV1; assay: Acid Activation Assay (pH 5.0, intracellular Ca2+, FLIPR); assay type: cell-based; details: percentage of the maximal pH 5.0-induced response remaining; recombinant HEK293 hTRPV1 cells; maximum concentration tested 37.5 μM
Procedure, shortened: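 HEK293 cells stably expressing recombinant hTRPV1, loaded with Calcium-4 dye 90-120 min at 25° C. Compounds added over a 12-point half-log range (top 37.5 μM), then pH 5.0 DPBS/MES challenge after 3 min; FLIPR peak fluorescence over baseline given as % of maximal pH 5.0 response.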

T1 sequence (Q8NER1 whole entry): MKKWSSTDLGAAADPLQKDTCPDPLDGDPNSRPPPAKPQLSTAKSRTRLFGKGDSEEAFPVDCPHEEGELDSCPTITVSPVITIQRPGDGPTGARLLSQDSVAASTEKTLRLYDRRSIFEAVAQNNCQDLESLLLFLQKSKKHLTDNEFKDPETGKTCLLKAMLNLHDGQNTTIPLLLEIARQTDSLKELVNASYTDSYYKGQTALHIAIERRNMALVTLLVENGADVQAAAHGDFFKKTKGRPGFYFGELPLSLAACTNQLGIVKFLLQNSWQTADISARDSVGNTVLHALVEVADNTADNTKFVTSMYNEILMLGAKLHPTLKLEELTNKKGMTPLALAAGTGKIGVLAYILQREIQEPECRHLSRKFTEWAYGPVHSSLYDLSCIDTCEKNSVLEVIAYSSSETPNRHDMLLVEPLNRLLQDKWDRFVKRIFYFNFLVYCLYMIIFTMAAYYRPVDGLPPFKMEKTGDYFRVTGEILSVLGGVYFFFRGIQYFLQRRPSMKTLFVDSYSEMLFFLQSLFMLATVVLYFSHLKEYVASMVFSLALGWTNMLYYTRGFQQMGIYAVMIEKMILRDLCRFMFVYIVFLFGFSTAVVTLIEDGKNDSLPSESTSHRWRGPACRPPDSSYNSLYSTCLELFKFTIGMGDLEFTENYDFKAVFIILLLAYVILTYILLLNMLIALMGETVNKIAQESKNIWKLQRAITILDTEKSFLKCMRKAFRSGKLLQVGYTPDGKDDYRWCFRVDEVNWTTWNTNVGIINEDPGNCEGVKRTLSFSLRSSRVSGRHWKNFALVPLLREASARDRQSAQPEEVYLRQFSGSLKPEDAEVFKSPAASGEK

IC50 [1]	human TRPV1 H^+ (max % remain) [2]	Compound
0.02 µM	55%	O=C1CCc2ccc(NC(=O)N[C@@H]3CC(CF)(CF)Oc4cc(OC(F)(F)F)ccc43)cc2N1 [Example 211, 1-[(4R)-2,2-bis(fluoromethyl)-7-(trifluoromethoxy)-3,4-dihydro-2H-chromen-4-yl]-3-(2-oxo-1,2,3,4-tetrahydroquinolin-7-yl)urea]
0.054 µM	36%	Cn1c(=O)ccc2c(NC(=O)N[C@@H]3CC(CF)(CF)Oc4c(F)cc(F)cc43)cccc21 [Example 72, 1-[(4R)-6,8-difluoro-2,2-bis(fluoromethyl)-3,4-dihydro-2H-chromen-4-yl]-3-(1-methyl-2-oxo-1,2-dihydroquinolin-5-yl)urea]
0.074 µM	36%	CCC1(CC)C[C@@H](NC(=O)Nc2ccc3c(c2)NC(=O)CC3)c2cc(F)ccc2O1 [Example 229, 1-[(4R)-2,2-diethyl-6-fluoro-3,4-dihydro-2H-chromen-4-yl]-3-(2-oxo-1,2,3,4-tetrahydroquinolin-7-yl)urea]
0.032 µM	28%	CN1C(=O)NCc2c(NC(=O)N[C@@H]3C[C@](C)(C(F)F)Oc4ccccc43)cccc21 [Example 12, 1-[(2R,4R)-2-(difluoromethyl)-2-methyl-3,4-dihydro-2H-chromen-4-yl]-3-(1-methyl-2-oxo-1,2,3,4-tetrahydroquinazolin-5-yl)urea]
0.015 µM	42%	CCC1(CC)C[C@@H](NC(=O)Nc2cccc3c2ccc(=O)n3C)c2cccc(F)c2O1 [Example 66, 1-[(4R)-2,2-diethyl-8-fluoro-3,4-dihydro-2H-chromen-4-yl]-3-(1-methyl-2-oxo-1,2-dihydroquinolin-5-yl)urea]
0.38 µM	43%	CC1(C)C[C@H](NC(=O)Nc2ccc3c(c2)NC(=O)N(CCO)C3)c2cc(F)ccc2O1 [Example 57, 1-[(4S)-6-fluoro-2,2-dimethyl-3,4-dihydro-2H-chromen-4-yl]-3-[3-(2-hydroxyethyl)-2-oxo-1,2,3,4-tetrahydroquinazolin-7-yl]urea]
0.11 µM	31%	CN1C(=O)CCc2ccc(NC(=O)N[C@@H]3CC(C)(C)Oc4cc(F)ccc43)cc21 [Example 253, 1-[(4R)-7-fluoro-2,2-dimethyl-3,4-dihydro-2H-chromen-4-yl]-3-(1-methyl-2-oxo-1,2,3,4-tetrahydroquinolin-7-yl)urea]
0.011 µM	27%	CCC1(CC)C[C@@H](NC(=O)Nc2cccc3c2CNC(=O)N3C)c2ccccc2O1 [Example 140, 1-[(4R)-2,2-diethyl-3,4-dihydro-2H-chromen-4-yl]-3-(1-methyl-2-oxo-1,2,3,4-tetrahydroquinazolin-5-yl)urea]
0.065 µM	3%	CCC1(CC)C[C@@H](NC(=O)Nc2ccc3c(c2)NC(=O)N(CCO)C3)c2cccc(F)c2O1 [Example 44, 1-[(4R)-2,2-diethyl-8-fluoro-3,4-dihydro-2H-chromen-4-yl]-3-[3-(2-hydroxyethyl)-2-oxo-1,2,3,4-tetrahydroquinazolin-7-yl]urea]
13 µM	92%	CN1C(=O)CCc2ccc(NC(=O)N[C@H]3CC(C)(C)Oc4ccc(F)cc43)cc21 [Example 287, 1-[(4S)-6-fluoro-2,2-dimethyl-3,4-dihydro-2H-chromen-4-yl]-3-(1-methyl-2-oxo-1,2,3,4-tetrahydroquinolin-7-yl)urea]
0.008 µM	0%	C[C@H]1Oc2c(NC(=O)N[C@@H]3CC(CF)(CF)Oc4cc(Cl)ccc43)cccc2NC1=O [Example 134, 1-[(4R)-7-chloro-2,2-bis(fluoromethyl)-3,4-dihydro-2H-chromen-4-yl]-3-[(2R)-2-methyl-3-oxo-3,4-dihydro-2H-1,4-benzoxazin-8-yl]urea]
0.15 µM	14%	CCCC1(CCC)C[C@@H](NC(=O)Nc2ccc3c(c2)NC(=O)N(CCO)C3)c2cccc(F)c2O1 [Example 311, 1-[(4R)-8-fluoro-2,2-dipropyl-3,4-dihydro-2H-chromen-4-yl]-3-[3-(2-hydroxyethyl)-2-oxo-1,2,3,4-tetrahydroquinazolin-7-yl]urea]
0.063 µM	2%	C[C@@]1(CF)C[C@@H](NC(=O)Nc2ccc3c(c2)NC(=O)N(CCO)C3)c2ccc(C(F)(F)F)cc2O1 [Example 58, 1-[(2S,4R)-2-(fluoromethyl)-2-methyl-7-(trifluoromethyl)-3,4-dihydro-2H-chromen-4-yl]-3-[3-(2-hydroxyethyl)-2-oxo-1,2,3,4-tetrahydroquinazolin-7-yl]urea]
0.097 µM	3%	CC1(C)C[C@@H](NC(=O)Nc2ccc3c(c2)NC(=O)N(CCO)C3)c2ccc(Br)cc2O1 [Example 63, 1-[(4R)-7-bromo-2,2-dimethyl-3,4-dihydro-2H-chromen-4-yl]-3-[3-(2-hydroxyethyl)-2-oxo-1,2,3,4-tetrahydroquinazolin-7-yl]urea]
0.026 µM	71%	CN1C(=O)CCc2ccc(NC(=O)N[C@@H]3C[C@@](C)(CF)Oc4cc(Cl)ccc43)cc21 [Example 291, 1-[(2S,4R)-7-chloro-2-(fluoromethyl)-2-methyl-3,4-dihydro-2H-chromen-4-yl]-3-(1-methyl-2-oxo-1,2,3,4-tetrahydroquinolin-7-yl)urea]
0.17 µM	42%	O=C1CCc2ccc(NC(=O)N[C@@H]3CC(CF)(CF)Oc4ccc(F)cc43)cc2N1 [Example 213, 1-[(4R)-6-fluoro-2,2-bis(fluoromethyl)-3,4-dihydro-2H-chromen-4-yl]-3-(2-oxo-1,2,3,4-tetrahydroquinolin-7-yl)urea]
0.032 µM	17%	CCC1(CC)C[C@@H](NC(=O)Nc2cccc3c2ccc(=O)n3C)c2ccc(OC(F)(F)F)cc2O1 [Example 76, 1-[(4R)-2,2-diethyl-7-(trifluoromethoxy)-3,4-dihydro-2H-chromen-4-yl]-3-(1-methyl-2-oxo-1,2-dihydroquinolin-5-yl)urea]
0.51 µM	47%	O=C1CCc2ccc(NC(=O)N[C@@H]3CCOc4c3cccc4C(F)(F)F)cc2N1 [Example 238, 1-(2-oxo-1,2,3,4-tetrahydroquinolin-7-yl)-3-[(4R)-8-(trifluoromethyl)-3,4-dihydro-2H-chromen-4-yl]urea]
0.06 µM	49%	O=C1CCc2ccc(NC(=O)N[C@@H]3CC(CF)(CF)Oc4ccccc43)cc2N1 [Example 215, 1-[(4R)-2,2-bis(fluoromethyl)-3,4-dihydro-2H-chromen-4-yl]-3-(2-oxo-1,2,3,4-tetrahydroquinolin-7-yl)urea]
0.25 µM	56%	Cn1c(=O)ccc2c(NC(=O)N[C@@H]3CCOc4ccc(F)cc43)cccc21 [Example 82, 1-[(4R)-6-fluoro-3,4-dihydro-2H-chromen-4-yl]-3-(1-methyl-2-oxo-1,2-dihydroquinolin-5-yl)urea]
0.4 µM	113%	CCCC1(CCC)C[C@@H](NC(=O)Nc2ccc3c(c2)NC(=O)CO3)c2cc(F)ccc2O1 [Example 107, 1-[(4R)-6-fluoro-2,2-dipropyl-3,4-dihydro-2H-chromen-4-yl]-3-(3-oxo-3,4-dihydro-2H-1,4-benzoxazin-6-yl)urea]
0.13 µM	73%	CN1C(=O)CCc2c(NC(=O)N[C@@H]3CC(CF)(CF)Oc4cc(Cl)ccc43)cccc21 [Example 254, 1-[(4R)-7-chloro-2,2-bis(fluoromethyl)-3,4-dihydro-2H-chromen-4-yl]-3-(1-methyl-2-oxo-1,2,3,4-tetrahydroquinolin-5-yl)urea]
0.23 µM	0%	CN(CCO)C1Cc2ccc(NC(=O)N[C@@H]3CC(CF)(CF)Oc4cc(Cl)ccc43)cc2NC1=O (stereo partly drawn) [Example 304, 1-[(4R)-7-chloro-2,2-bis(fluoromethyl)-3,4-dihydro-2H-chromen-4-yl]-3-{3-[(2-hydroxyethyl)(methyl)amino]-2-oxo-1,2,3,4-tetrahydroquinolin-7-yl}urea]
0.012 µM	80%	O=C1CCc2ccc(NC(=O)N[C@@H]3CC(CF)(CF)Oc4cc(C(F)(F)F)ccc43)cc2N1 [Example 320, 1-[(4R)-2,2-bis(fluoromethyl)-7-(trifluoromethyl)-3,4-dihydro-2H-chromen-4-yl]-3-(2-oxo-1,2,3,4-tetrahydroquinolin-7-yl)urea]
0.13 µM	0%	CCN1C(=O)NCc2c(NC(=O)N[C@@H]3CC(CF)(CF)Oc4cc(Cl)ccc43)cccc21 [Example 162, 1-[(4R)-7-chloro-2,2-bis(fluoromethyl)-3,4-dihydro-2H-chromen-4-yl]-3-(1-ethyl-2-oxo-1,2,3,4-tetrahydroquinazolin-5-yl)urea]
0.076 µM	4%	CC1(C)C[C@@H](NC(=O)Nc2ccc3c(c2)NC(=O)N(CCO)C3)c2ccc(Cl)cc2O1 [Example 313, 1-[(4R)-7-chloro-2,2-dimethyl-3,4-dihydro-2H-chromen-4-yl]-3-[3-(2-hydroxyethyl)-2-oxo-1,2,3,4-tetrahydroquinazolin-7-yl]urea]

Compound	IC50 [1]	human TRPV1 H^+ (max % remain) [2]
1-[(2S,4R)-2-(fluoromethyl)-2-methyl-7-(trifluoromethyl)-3,4-dihydro-2H-chromen-4-yl]-3-(1-methyl-2-oxo-1,2-dihydroquinolin-5-yl)urea [Example 84]	0.023 µM	40%
